This note sets out measurements from ChEMBL document CHEMBL1152721, “A simple in vitro assay for assessing the reactivity of nitrile containing compounds” (Bioorg Med Chem Lett, 2009).

A short description of test [1]: Binding affinity to glutathione assessed as typical half life.
The nature of test [2]: Binding affinity to cysteine assessed as typical half life.
Test [3] is described as follows: Binding affinity to glutathione assessed as typical half life at 1.4 nM.
Test [4] can be described thus: Binding affinity to cysteine assessed as typical half life at 1.4 nM.

Where only a bound is given, the exact number is not on record here.

Turning to `COC(=O)C1=C(C#N)NC(C)=C(C(=O)OC(C)C)C1c1cccc([N+](=O)[O-])c1` (stereo not given), the results for the T1/2 in test [1] and in test [2] were 40 h and 2 h, respectively.

As to `CCCN1CCN(c2ccc(C(=O)NC3(C(=O)NCC#N)CCCCC3)cc2)CC1`, the T1/2 in test [3] is 97 h; in test [4], under 10 h.

In the case of `COCCN1CCC(Cc2ccc(C(=O)NCc3cnc(C#N)nc3NCC(C)(C)C)cc2)CC1`, the T1/2 in test [1] turned out to be 7.3 h.
